Legend:
Type in all cases: biochemical
[1] = target: T1, ADAMTS-5 recombinant protein (Homo sapiens (Human), UniProt Q9UNA0); experiment: In vitro fluorescence (FRET-peptide) enzymatic assay of ADAMTS-5 activity; details: FRET peptide substrate 8 μM, 10 nM enzyme, 37° C. 3 hours
Description: (§1) A FRET (fluorescence resonance energy transfer) peptide was cleaved by recombinant ADAMTS-4 or ADAMTS-5 proteins into two separate fragments resulting in an increase of fluorescence signal which was quantified. The peptide was 5-FAM-[…](5-TAMRA)K-NH2, customized from ANASPEC. ADAMTS-4 recombinant protein (catalog #4307-AD) and ADAMTS-5 recombinant protein (catalog #2198-AD) were purchased from R&D Systems.
(§2) An assay buffer containing 50 mM HEPES pH 7.5, 100 mM NaCl, 5 mM CaCl2, 0.1% CHAPS and 5% Glycerol was prepared. A volume of 2.5 μl of compound in the assay buffer was dispensed to a 384-well plate, and 2.5 μl of ADAMTS-4 or ADAMTS-5 protein (final concentration in the reaction was 10 nM) was added. The compounds and proteins were pre-incubated at room temperature for 15 minutes. Then, 5 μl of substrate was added to each well. The final substrate concentrations for ADAMTS-4 and ADAMTS-5 were 15 μM and 8 μM, respectively. The fluorescence signal in each well was determined, after incubation at 37° C. for 3 hours, on a TECAN plate reader (Excitation, 490 nm; Emission, 520 nm).
(§3) The data was inputted into GraphPad Prism, and the IC50 values were calculated using function “log (inhibitor) vs. response—Variable slope (four parameters)”. (See Table 1)

[2] = target: T1, ADAMTS-5 recombinant protein; experiment: In vitro ELISA of ADAMTS-5 activity (Aggrecan-IGD enzymatic assay); details: aggrecan-IGD substrate, ARGSVIL-peptide ELISA, 37° C. 45 minutes
Description: In this assay, the enzymatic activity of recombinant ADAMTS-5 protein (catalog #2198-AD, R&D Systems) was assayed with a protein substrate, the aggrecan IGD protein. The aggrecan IGD protein is a polypeptide connecting human aggrecan globular domains 1 and 2 (T331-G458) expressed in E. Coli with a C-terminal His-tag (catalog #30411000, BIOTEZ). The enzymatic product ARGSVIL-peptide was detected using an ELISA kit from BioTEZ (catalog #30510111).
An assay buffer containing 50 mM HEPES pH 7.5, 100 mM NaCl, 5 mM CaCl2), 0.1% CHAPS and 5% Glycerol was prepared. Recombinant ADAMTS-5 protein was diluted to 0.3 nM in the assay buffer. Ten μl of […] and 10 μl of compound solution was transferred to each well of a 96-well plate and incubated at room temperature for 15 minutes. Substrate aggrecan-IGD was diluted to 100 nM with the assay buffer and 20 μl was added to each well. The plate was incubated at 37° C. for 45 minutes. After incubation, the newly generated epitope ARGSVIL-peptides were measured using the Aggrecanase Activity ELISA Assay Kit following the manufacturer's instructions. Then, 100 μl of stop solution was added and the absorbance of each well was read at 450 nm, using […] as reference on a TECAN plate reader.
A standard curve of the ELISA assay was generated in GraphPad Prism using Sigmoidal 4PL function and the corresponding peptide concentrations were calculated based on the standard curve. The IC50 values were calculated using function “log (inhibitor) vs. response—Variable slope (four parameters)”. (See Table 2).

[3] = target: ADAMTS-4 recombinant protein (Homo sapiens (Human), UniProt O75173); experiment: In vitro fluorescence (FRET-peptide) enzymatic assay of ADAMTS-4 activity; details: FRET peptide substrate 15 μM, 10 nM enzyme, 37° C. 3 hours
ADAMTS-4 recombinant protein, sequence (O75173 213-685): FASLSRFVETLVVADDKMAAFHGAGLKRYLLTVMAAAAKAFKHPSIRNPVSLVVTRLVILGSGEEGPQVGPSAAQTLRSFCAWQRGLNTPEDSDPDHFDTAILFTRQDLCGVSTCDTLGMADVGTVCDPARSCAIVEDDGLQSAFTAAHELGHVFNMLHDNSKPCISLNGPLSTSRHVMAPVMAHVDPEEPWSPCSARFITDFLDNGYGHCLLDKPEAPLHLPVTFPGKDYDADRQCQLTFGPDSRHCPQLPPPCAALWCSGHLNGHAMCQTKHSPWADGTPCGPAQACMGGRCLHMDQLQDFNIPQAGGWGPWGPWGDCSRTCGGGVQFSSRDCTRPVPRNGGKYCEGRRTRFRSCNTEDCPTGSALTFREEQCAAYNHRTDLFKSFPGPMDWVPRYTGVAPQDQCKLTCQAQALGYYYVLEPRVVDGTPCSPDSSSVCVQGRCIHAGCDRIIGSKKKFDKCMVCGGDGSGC
Description: as §1, §2, §3

T1 sequence (Q9UNA0 262-622): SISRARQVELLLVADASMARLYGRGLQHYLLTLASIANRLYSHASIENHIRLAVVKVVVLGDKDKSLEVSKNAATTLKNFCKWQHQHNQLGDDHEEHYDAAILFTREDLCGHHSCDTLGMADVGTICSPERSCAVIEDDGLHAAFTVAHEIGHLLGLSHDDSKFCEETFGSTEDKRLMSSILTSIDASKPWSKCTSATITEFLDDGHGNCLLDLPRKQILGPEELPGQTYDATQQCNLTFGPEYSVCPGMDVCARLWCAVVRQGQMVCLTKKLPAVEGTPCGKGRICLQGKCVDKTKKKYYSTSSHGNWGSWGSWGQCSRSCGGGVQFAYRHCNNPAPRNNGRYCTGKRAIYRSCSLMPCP

Row | Compound | IC50 [1] | IC50 [2] | IC50 [3]
1 | O=C1NC(=O)C(CC(COCc2ccccc2)C(=O)N2Cc3ccc(C(F)(F)F)cc3C2)(C2CC2)N1 (stereo not drawn) [Example 65, 5-(2-((benzyloxy)methyl)-3-oxo-3-(5-(trifluoromethyl)isoindolin-2-yl)propyl)-5-cyclopropylimidazolidine-2,4-dione] | 0.021 µM | 0.031 µM | 0.016 µM
2 | CC(C[C@@]1(C2CC2)NC(=O)NC1=O)C(=O)N1Cc2cc(Cl)c(Cl)cc2C1 (mixture of isomers) [Example 34-2, (5S)-5-cyclopropyl-5-(3-(5,6-dichloroisoindolin-2-yl)-2-methyl-3-oxopropyl)imidazolidine-2,4-dione] | 0.009 µM | 0.017 µM | 0.007 µM
3 | O=C1NC(=O)[C@](CCC(=O)N2Cc3ccc(OC(F)(F)F)cc3C2)(C2CC2)N1 [Example 4, (S)-5-cyclopropyl-5-(3-oxo-3-(5-(trifluoromethoxy)isoindolin-2-yl)propyl)imidazolidine-2,4-dione] | 0.48 µM | 0.73 µM | 0.17 µM
4 | O=C1NC(=O)[C@](CCC(=O)N2Cc3ccccc3C2)(C2CC2)N1 [Example 11, (S)-5-cyclopropyl-5-(3-(isoindolin-2-yl)-3-oxopropyl)imidazolidine-2,4-dione] | 0.41 µM | 0.56 µM | 0.11 µM
5 | Cc1cc2c(cc1Cl)CN(C(=O)CC[C@@]1(C3CC3)NC(=O)NC1=O)C2 [Example 57, (S)-5-(3-(5-chloro-6-methylisoindolin-2-yl)-3-oxopropyl)-5-cyclopropylimidazolidine-2,4-dione] | 0.13 µM | 0.19 µM | 0.043 µM
6 | Cn1ccnc1C1(CCC(=O)N2Cc3ccc(C(F)(F)F)cc3C2)NC(=O)NC1=O (stereo not drawn) [Example 62, 5-(1-methyl-1H-imidazol-2-yl)-5-(3-oxo-3-(5-(trifluoromethyl)isoindolin-2-yl)propyl)imidazolidine-2,4-dione] | 0.089 µM | 0.29 µM | 0.1 µM
7 | CC1CN(C(=O)CC[C@@]2(C3CC3)NC(=O)NC2=O)CCc2cc(Cl)c(Cl)cc21 (stereo partly drawn) [Example 37, (S)-5-cyclopropyl-5-(3-(7,8-dichloro-1-methyl-1,2,4,5-tetrahydro-3H-benzo [d]azepin-3-yl)-3-oxopropyl)imidazolidine-2,4-dione] | 0.013 µM | 0.016 µM | 0.005 µM
8 | CC1CN(C(=O)CC[C@@]2(C3CC3)NC(=O)NC2=O)CCc2ccc(Cl)c(Cl)c21 (stereo partly drawn) [Example 38, (S)-5-cyclopropyl-5-(3-(8,9-dichloro-1-methyl-1,2,4,5-tetrahydro-3H-benzo [d]azepin-3-yl)-3-oxopropyl)imidazolidine-2,4-dione] | 0.031 µM | 0.029 µM | 0.062 µM
9 | COc1cc2c(cc1Cl)CN(C(=O)CC[C@@]1(C3CC3)NC(=O)NC1=O)C2 [Example 35, (S)-5-(3-(5-chloro-6-methoxyisoindolin-2-yl)-3-oxopropyl)-5-cyclopropylimidazolidine-2,4-dione] | 0.11 µM | 0.17 µM | 0.23 µM
10 | CC1c2cc(C(F)(F)F)c(Cl)cc2CN1C(=O)CC[C@@]1(C2CC2)NC(=O)NC1=O (stereo partly drawn) [Example 41, (5S)-5-(3-(5-chloro-1-methyl-6-(trifluoromethyl)isoindolin-2-yl)-3-oxopropyl)-5-cyclopropylimidazolidine-2,4-dione] | 0.021 µM | 0.018 µM | 0.036 µM
11 | [2H]C1([2H])c2cc(Cl)c(C(F)(F)F)cc2C(C)N1C(=O)CC[C@@]1(C2CC2)NC(=O)NC1=O (stereo partly drawn) [Example 71, (5S)-5-(3-(5-chloro-1-methyl-6-(trifluoromethyl)isoindolin-2-yl-3,3-d2)-3-oxopropyl)-5-cyclopropylimidazolidine-2,4-dione] | 0.026 µM | 0.029 µM | 0.054 µM
12 | CC1c2cc(Cl)c(Cl)cc2CN1C(=O)CC[C@@]1(C2CC2)NC(=O)NC1=O (stereo partly drawn) [Example 66, (5S)-5-cyclopropyl-5-(3-(5,6-dichloro-1-methylisoindolin-2-yl)-3-oxopropyl)imidazolidine-2,4-dione] | 0.052 µM | 0.083 µM | 0.043 µM

Reference: patent US20240299360A1, “ADAMTS INHIBITORS, PREPARATION METHODS AND MEDICINAL USES THEREOF” (Jiangsu Hengrui Pharmaceuticals Co., Ltd., priority 2020, published 2024)
